Eleven compounds from patent US8258160B2, “SCD1 inhibitors triazole and tetrazole compounds” (Novartis AG, priority 2006, dated 2012) can be followed below.

A word on the IC50: it is the concentration that inhibits the measured activity by half. Read a high IC50 as weaker potency. Broadly, the melting point is the temperature, or range, at which the solid turns liquid.

For data set [1], the target named is T1, stearoyl-CoA desaturase (SCD1) (Mus musculus, UniProt P13516).
T1 construct: Reactions are started by adding 50 μL of microsomes (1.25 mg/mL); from tissue; host or cells: liver microsomes of male ICR outbred mice on a high-carbohydrate, low-fat diet
T1 sequence (P13516 1-355): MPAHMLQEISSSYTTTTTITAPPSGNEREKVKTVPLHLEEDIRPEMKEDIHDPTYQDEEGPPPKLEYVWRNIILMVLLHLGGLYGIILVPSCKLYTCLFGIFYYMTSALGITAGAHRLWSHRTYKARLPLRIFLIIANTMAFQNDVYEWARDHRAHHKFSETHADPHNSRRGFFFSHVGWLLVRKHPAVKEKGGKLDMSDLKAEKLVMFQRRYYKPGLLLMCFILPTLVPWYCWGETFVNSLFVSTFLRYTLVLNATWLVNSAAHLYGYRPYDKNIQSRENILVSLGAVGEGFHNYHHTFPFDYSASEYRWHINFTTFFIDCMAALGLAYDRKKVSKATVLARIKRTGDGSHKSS
Kind of data set: SCD microsomal assay: release of 3H2O from [9,10-3H]stearoyl-CoA in mouse liver microsomes. The format is biochemical. Particulars: 15 min incubation, 25° C. The source says: The identification of compounds of the invention as SCD inhibitors was readily accomplished using the SCD enzyme and microsomal assay procedure described in Shanklin J. and Summerville C., Proc. Natl. Acad. Sci. USA (1991), Vol. 88, pp. 2510-2514.
The identification of compounds of the invention as SCD inhibitors was readily accomplished using the SCD microsomal assay procedure described in Shanklin J. and Summerville C., Proc. Natl. Acad. Sci. USA (1991), Vol. 88, pp. 2510-2514.
Male ICR outbread mice, on a high-carbohydrate, low fat diet, under light halothane (15% in mineral oil) anesthesia are sacrificed by exsanguination during periods of high enzyme activity. Livers are immediately rinsed with cold 0.9% NaCl solution, weighed and minced with scissors. All procedures are performed at 4° C. unless specified otherwise. Livers are homogenized in a solution (1/3 w/v) containing 0.25 M sucrose, 62 mM potassium phosphate buffer (pH 7.0), 0.15 M KCl, 15 mM N-acetylcysteine, 5 mM MgCl2, and 0.1 mM EDTA using 4 strokes of a Potter-Elvehjem tissue homogenizer. The homogenate is centrifuged at 10,400×g for 20 min to eliminate mitochondria and cellular debris. The supernatant is filtered through a 3-layer cheesecloth and centrifuged at 105,000×g for 60 min. The microsomal pellet is gently resuspended in the same homogenization solution with a small glass/teflon homogenizer and stored at −70° C. The absence of mitochondrial contamination is enzymatically assessed. The protein concentration is measured using bovine serum albumin as the standard.
Desaturase activity is measured as the release of ^3H2O from [9,10-^3H]stearoyl-CoA. Reactions per assay point conditions are as follows: 2 μL 1.5 mM stearoyl-CoA, 0.25 μL 1 mCi/mL ^3H stearoyl CoA, 10 μL 20 mM NADH, 36.75 μL 0.1 M PK buffer (K2HPO4/NaH2PO4, pH 7.2). The test compound or control solution is added in a 1 μL volume. Reactions are started by adding 50 μL of microsomes (1.25 mg/mL). The plates are mixed and after 15 min incubation on a heating block (25° C.), the reactions are stopped by the addition of 10 μL 60% PCA. An aliquot of 100 μL is then transferred to a filter plate pretreated with charcoal and the plate centrifuged at 4000 rpm for 1 min. The flow through containing the ^3H2O released by the SCD1 desaturation reaction is added to scintillation fluid and the radioactivity measured in a Packard TopCount. The data is analysed to identify the IC50 for test compounds and reference compounds. […] The activity was defined in terms of % SCD enzyme activity remaining at the desired concentration of the test compound or as the IC50 concentration. The IC50 (affinity) of the example compounds toward the stearoyl-CoA desaturase is comprised between around 20 μM and 0.0001 μM or between around 5 μM and 0.0001 μM or between around 1 μM and 0.0001 μM.

SMILES strings stand for the structures.

In turn, `Cc1nc(-c2nnn(Cc3ccc(F)cc3)n2)sc1C(=O)NCc1cccnc1` (single isomer, unassigned) [Example 7.1, 2-(2-(4-Fluorobenzyl)-2H-tetrazol-5-yl)-4-methyl-N-(pyridin-3-ylmethyl)thiazole-5-carboxamide] came in with a melting point of 148 to 149 °C. In addition, the midpoint of inhibition in data set [1], the IC50, lay at 510 nM.

For `Cc1nc(-c2nnnn2Cc2ccc(C(F)(F)F)cc2)sc1C(=O)NCc1cccnc1` (single isomer, unassigned) [Example 7.2, 4-Methyl-N-(pyridin-3-ylmethyl)-2-(1-(4-(trifluoromethyl)benzyl)-1H-tetrazol-5-yl)thiazole-5-carboxamide], the melting point fell in the range of 175 to 176 °C. This compound also displayed an IC50 in data set [1] of 160 nM.

Consider `Cc1nc(-c2nnn(CC3CC3)n2)sc1C(=O)NCc1cccnc1` (single isomer, unassigned) [Example 7.3, 2-(2-(Cyclopropylmethyl)-2H-tetrazol-5-yl)-4-methyl-N-(pyridin-3-ylmethyl)thiazole-5-carboxamide], for which the melting point is 149 to 150 °C. This compound returned an IC50 in data set [1] of 310 nM.

As to `Cc1nc(-c2cn(CCc3ccc(F)cc3)nn2)sc1C(=O)NCc1ccccc1` [Example 1, N-benzyl-2-(1-(4-fluorophenethyl)-1H-1,2,3-triazol-4-yl)-4-methylthiazole-5-carboxamide], the melting point is 181 to 182 °C. This compound also came in with an IC50 in data set [1] of 20 nM.

With `Cc1nc(-c2cn(Cc3ccccc3)nn2)sc1C(=O)NCc1ccccc1` [Example 1.1, N-benzyl-2-(1-benzyl-1H-1,2,3-triazol-4-yl)-4-methylthiazole-5-carboxamide], the melting point lay in the range of 108 to 109 °C. The same compound showed a half-maximal inhibitory concentration (IC50) in data set [1] of 30 nM.

Compound `Cc1nc(-c2cn(CCc3ccc(F)cc3)nn2)sc1C(=O)NCc1cccnc1` [Example 4.3, 2-(1-(4-fluorophenethyl)-1H-1,2,3-triazol-4-yl)-4-methyl-N-(pyridin-3-ylmethyl)thiazole-5-carboxamide] showed a melting point of 149 to 150 °C. Besides, it took 120 nM to reach half-maximal inhibition in data set [1] (IC50).

Turning to `Cc1nc(-n2cc(Cc3ccccc3)nn2)sc1C(=O)NCc1ccccc1` [Example 10.1, N-benzyl-2-(4-benzyl-1H-1,2,3-triazol-1-yl)-4-methylthiazole-5-carboxamide], the melting point was 139 to 141 °C. For the same compound, the 50% inhibitory concentration (IC50) in data set [1] worked out at 60 nM.

`Cc1nc(-n2cc(CCC3CCCCC3)nn2)sc1C(=O)NCc1ccccc1` [Example 10.14, N-benzyl-2-(4-(2-cyclohexylethyl)-1H-1,2,3-triazol-1-yl)-4-methylthiazole-5-carboxamide] showed a melting point of 82 to 84 °C. The same compound showed an IC50 in data set [1] of 240 nM.

The compound `Cc1nc(-n2cc(C(=O)NCc3ccc(F)cc3)nn2)sc1C(=O)NCc1ccccc1` [Example 18.1, N-benzyl-2-(4-(4-fluorobenzylcarbamoyl)-1H-1,2,3-triazol-1-yl)-4-methylthiazole-5-carboxamide] returned a melting point of 198 to 201 °C. In data set [1], the 50% inhibitory concentration (IC50) was determined as 10 nM.

For the compound `Cc1cc(-c2n[nH]c(Cc3ccccc3)n2)sc1C(=O)NCc1cccnc1` [Example 26, 5-(5-benzyl-1H-1,2,4-triazol-3-yl)-3-methyl-N-(pyridin-3-ylmethyl)thiophene-2-carboxamide], the melting point was 82 °C (dec.). Further, the concentration for half-maximal inhibition (IC50) in data set [1] turned out to be 300 nM.

In the case of `Cc1nc(-c2cc(Cc3ccccc3)no2)sc1C(=O)NCc1ccccc1` [Example 27, N-benzyl-2-(3-benzylisoxazol-5-yl)-4-methylthiazole-5-carboxamide], the melting point lay within 103 to 104 °C. 600 nM corresponded to half-maximal inhibition in data set [1] (IC50).
